Source: patent publication US10681909B2, “Herbicidal triazoles” (FMC Corporation, priority 2014, dated 2020)

How the values were obtained:
lambsquarters = assay: Test C preemergence; type: in vivo, Chenopodium album; details: for Plant response rating (scale of 0 to 100 where 0 is no effect and 100 is complete control): Lambsquarters, preemergence; for Lambsquarters plant response rating (0 to 100): Preemergence, visual rating after 13 to 15 d
Description: (§1) Seeds of plant species selected from blackgrass (Alopecurus myosuroides), ryegrass, Italian (Italian ryegrass, Lolium multiflorum), wheat (winter wheat, Triticum aestivum), galium (catchweed bedstraw, Galium aparine), corn (Zea mays), crabgrass, large (large crabgrass, Digitaria sanguinalis), foxtail, giant, (giant foxtail, Setaria faberii), johnsongrass (Sorghum halepense), lambsquarters (Chenopodium album), morningglory (Ipomoea coccinea), nutsedge, yellow (yellow nutsedge, Cyperus esculentus), pigweed (Amaranthus retroflexus), ragweed (common ragweed, Ambrosia elatior), soybean (Glycine max), barnyardgrass (Echinochloa crus-galli), oilseed rape (Brassica napus), waterhemp (common waterhemp, Amaranthus rudis), and velvetleaf (Abutilon theophrasti) were planted into a blend of loam soil and sand and treated preemergence with test chemicals formulated in a non-phytotoxic solvent mixture which included a surfactant. At the same time, plants selected from these crop and weed species and also chickweed (common chickweed, Stellaria media), oat, wild (wild oat, Avena fatua), and kochia (Kochia scoparia), were planted in pots containing Sunshine Redi-Earth® planting medium comprising spaghnum peat moss, vermiculite, starter nutrients and dolomitic limestone and treated with postemergence applications of test chemicals formulated in the same manner. Plants ranged in height from 2 to 18 cm (1- to 4-leaf stage) for postemergence treatments. […] A dash (-) response means no test result.

deadnettle = assay: Test D preemergence; type: in vivo, Lamium amplexicaule; details: for Plant response rating: Deadnettle: scale 0 to 100
Description: (§2) Seeds of plant species selected from bluegrass (annual bluegrass, Poa annua), blackgrass (Alopecurus myosuroides), canarygrass (Phalaris minor), chickweed (common chickweed, Stellaria media), galium (catchweed bedstraw, Galium aparine), bromegrass, down (downy bromegrass, Bromus tectorum), Russian thistle (Salsola kali), field poppy (Papaver rhoeas), field violet (Viola arvensis), foxtail, green (green foxtail, Setaria viridis), deadnettle (henbit deadnettle, Lamium amplexicaule), ryegrass, Ital. (Italian ryegrass, Lolium multiflorum), kochia (Kochia scoparia), lambsquarters (Chenopodium album), oilseed rape (Brassica napus), pigweed (Amaranthus retroflexus), chamomile (scentless chamomile, Matricaria inodora), speedwell (bird's-eye speedwell, Veronica persica), barley, spring (spring barley, Hordeum vulgare), wheat, spring (spring wheat, Triticum aestivum), buckwheat, wild (wild buckwheat, Polygonum convolvulus), wild mustard (Sinapis arvensis), oat, wild (wild oat, Avena fatua), radish, wild (wild radish, Raphanus raphanistrum), […]), barley, winter (winter barley, Hordeum vulgare), and wheat, winter (winter wheat, Triticum aestivum) were planted into a silt loam soil and treated preemergence with test chemicals formulated in a non-phytotoxic solvent mixture which included a surfactant. At the same time, these species were planted in pots containing Sunshine Redi-Earth® planting medium comprising spaghnum peat moss, vermiculite, starter nutrients and dolomitic limestone and treated with postemergence applications of the test chemicals formulated in the same manner. Plants ranged in height from 2 to 18 cm (1- to 4-leaf stage). Treated plants and controls were maintained in a controlled growth environment for 14 to 21 d after which time all species were compared to controls and visually evaluated. […] A dash (-) response means no test result.

wild mustard = assay: Test D preemergence; type: in vivo, Sinapis arvensis; details: for Plant response rating: Mustard, Wild: scale 0 to 100
Description: as §2

pigweed = assay: Test D preemergence; type: in vivo, Amaranthus retroflexus; details: for Plant response rating: Pigweed: scale 0 to 100
Description: as §2

ryegrass, Italian = assay: Test C preemergence; type: in vivo, Lolium multiflorum; details: for Ryegrass, Italian plant response rating (0 to 100): Preemergence, visual rating after 13 to 15 d; for Plant response rating (scale of 0 to 100 where 0 is no effect and 100 is complete control): Ryegrass, Italian, preemergence
Description: as §1

speedwell = assay: Test D postemergence; type: in vivo, Veronica persica; details: scale 0 to 100
Description: as §2

foxtail, giant = assay: Test C preemergence; type: in vivo, Setaria faberii; details: for Plant response rating (scale of 0 to 100 where 0 is no effect and 100 is complete control): Foxtail, Giant, preemergence; for Foxtail, Giant plant response rating (0 to 100): Preemergence, visual rating after 13 to 15 d
Description: as §1

kochia = assay: Test D postemergence; type: in vivo, Kochia scoparia; details: scale 0 to 100
Description: as §2

crabgrass, large = assay: Test C preemergence; type: in vivo, Digitaria sanguinalis; details: for Plant response rating (scale of 0 to 100 where 0 is no effect and 100 is complete control): Crabgrass, Large, preemergence; for Crabgrass, Large plant response rating (0 to 100): Preemergence, visual rating after 13 to 15 d
Description: as §1

wheat, spring = assay: Test D postemergence; type: in vivo, Triticum aestivum; details: scale 0 to 100
Description: as §2

wheat, winter = assay: Test D postemergence; type: in vivo, Triticum aestivum; details: scale 0 to 100
Description: as §2

buckwheat, wild = assay: Test D preemergence; type: in vivo, Polygonum convolvulus; details: for Plant response rating: Buckwheat, Wild: scale 0 to 100
Description: as §2

[1] = 16 g ai/ha, 0 is no effect, 100 is complete control

Fc1ccc(-c2nc(OCC(F)(F)F)n(Cc3ccnc(C(F)(F)F)c3)n2)cc1 [Compound 30]
Plant response rating (scale of 0 to 100 where 0 is no effect and 100 is complete control) (lambsquarters; 125 g ai/ha): 95 | Plant response rating (scale of 0 to 100 where 0 is no effect and 100 is complete control) (lambsquarters; 250 g ai/ha): 98 | Lambsquarters plant response rating (0 to 100) (lambsquarters; 31 g ai/ha): 98 | Lambsquarters plant response rating (0 to 100) (lambsquarters; 62 g ai/ha): 98 | Plant response rating (0 to 100), Deadnettle (deadnettle; [1]): 85 | Plant response rating: Deadnettle (deadnettle; 31 g ai/ha): 95 | Plant response rating: Deadnettle (deadnettle; 62 g ai/ha): 100 | Plant response rating: Deadnettle (deadnettle; 125 g ai/ha): 100 | Plant response rating (0 to 100), Mustard, Wild (wild mustard; [1]): 90 | Plant response rating: Mustard, Wild (wild mustard; 62 g ai/ha): 100 | Plant response rating: Mustard, Wild (wild mustard; 125 g ai/ha): 100 | Plant response rating (0 to 100), Pigweed (pigweed; [1]): 100 | Plant response rating: Pigweed (pigweed; 62 g ai/ha): 100 | Plant response rating: Pigweed (pigweed; 125 g ai/ha): 100 | Ryegrass, Italian plant response rating (0 to 100) (ryegrass, Italian; 31 g ai/ha): 5 | Ryegrass, Italian plant response rating (0 to 100) (ryegrass, Italian; 62 g ai/ha): 60 | Plant response rating (scale of 0 to 100 where 0 is no effect and 100 is complete control) (ryegrass, Italian; 125 g ai/ha): 70 | Plant response rating (scale of 0 to 100 where 0 is no effect and 100 is complete control) (ryegrass, Italian; 250 g ai/ha): 70 | Plant response rating: Speedwell (speedwell; 16 g ai/ha): 100 | Plant response rating: Speedwell (speedwell; 31 g ai/ha): 100 | Plant response rating: Speedwell (speedwell; 62 g ai/ha): 100 | Plant response rating: Speedwell (speedwell; 125 g ai/ha): 100 | Plant response rating (scale of 0 to 100 where 0 is no effect and 100 is complete control) (foxtail, giant; 125 g ai/ha): 100 | Plant response rating (scale of 0 to 100 where 0 is no effect and 100 is complete control) (foxtail, giant; 250 g ai/ha): 100 | Foxtail, Giant plant response rating (0 to 100) (foxtail, giant; 31 g ai/ha): 98 | Foxtail, Giant plant response rating (0 to 100) (foxtail, giant; 62 g ai/ha): 100 | Plant response rating: Kochia (kochia; 16 g ai/ha): 85 | Plant response rating: Kochia (kochia; 31 g ai/ha): 90 | Plant response rating: Kochia (kochia; 62 g ai/ha): 90 | Plant response rating: Kochia (kochia; 125 g ai/ha): 95 | Plant response rating (scale of 0 to 100 where 0 is no effect and 100 is complete control) (crabgrass, large; 125 g ai/ha): 100 | Plant response rating (scale of 0 to 100 where 0 is no effect and 100 is complete control) (crabgrass, large; 250 g ai/ha): 100 | Crabgrass, Large plant response rating (0 to 100) (crabgrass, large; 31 g ai/ha): 98 | Crabgrass, Large plant response rating (0 to 100) (crabgrass, large; 62 g ai/ha): 100 | Plant response rating: Wheat, Spring (wheat, spring; 16 g ai/ha): 25 | Plant response rating: Wheat, Spring (wheat, spring; 31 g ai/ha): 30 | Plant response rating: Wheat, Spring (wheat, spring; 62 g ai/ha): 35 | Plant response rating: Wheat, Spring (wheat, spring; 125 g ai/ha): 45 | Plant response rating: Wheat, Winter (wheat, winter; 16 g ai/ha): 15 | Plant response rating: Wheat, Winter (wheat, winter; 31 g ai/ha): 15 | Plant response rating: Wheat, Winter (wheat, winter; 62 g ai/ha): 25 | Plant response rating: Wheat, Winter (wheat, winter; 125 g ai/ha): 35 | Plant response rating (0 to 100), Buckwheat, Wild (buckwheat, wild; [1]): 70 | Plant response rating: Buckwheat, Wild (buckwheat, wild; 31 g ai/ha): 70 | Plant response rating: Buckwheat, Wild (buckwheat, wild; 62 g ai/ha): 85 | Plant response rating: Buckwheat, Wild (buckwheat, wild; 125 g ai/ha): 85
